Measurements from patent US8129398B2 (priority 2008, dated 2012).

What follows are compounds tested against T1, HIV-integrase (Human immunodeficiency virus type 1 group M subtype B, UniProt P12497) (assay: HIV-Integrase Inhibition Activity (SPA bead integration assay with P33 labeled target DNA)). Conditions: recombinant integrase, class symbols; read-out: in vitro activity.
T1 construct: Recombinant integrase (0.26 ng) was incubated with the beads
Assay type: biochemical
Description: HIV-Integrase Inhibition Activity. To evaluate in-vitro activity against HIV-integrase, 5 pmole of biotin labeled substrate DNA was bound to 100 μg of Streptavidin coated PVT SPA beads (Amersham Pharmacia Biotech). Recombinant integrase (0.26 ng) was incubated with the beads for 90 min at 37° C. Unbound enzyme was removed by washing the complex followed by addition of inhibitors and 0.1 fmol of P33 labeled target DNA. The reaction was stopped by adding EDTA to a final concentration of 10 mM. Samples were counted in TopCountNXT (Packard) and the CPM was used as a measure of integration. The reaction condition was as described in A. Engelman and R. Craigie, J. Virol. 69, 5908-5911 (1995). The sequences of substrate and target DNA were described in Nucleic Acid Research 22, 1121-1122 (1994). Activity equal to A refers to a compound having IC50=<10 nM while B and C denote compounds having […] and IC50>100 nM respectively.

Q: With CN(C)C(=O)C(=O)NC12CCC(CC1)Cn1c2nc(C(=O)NCc2ccc3nccn3c2)c(O)c1=O [Example 244, Ethanediamide, N,N-dimethyl-N′-[6,7,8,9-tetrahydro-3-hydroxy-2-[[(imidazo[1,2-a]pyridin-6-ylmethyl)amino]carbonyl]-4-oxo-7,10-ethanopyrimido[1,2-a]azepin-10(4H)-yl]-] as the compound, how does the IC50 read?
A: The IC50 was 10 to 100 nM.

Q: For CC(=O)Nc1ccc(C(=O)NC23CCC(CC2)Cn2c3nc(C(=O)NCc3ccc(F)cc3)c(O)c2=O)cn1 [Example 320, 7,10-Ethanopyrimido[1,2-a]azepine-2-carboxamide, 10-[[[6-(acetylamino)-3-pyridinyl]carbonyl]amino]-N-[(4-fluorophenyl)methyl]-4,6,7,8,9,10-hexahydro-3-hydroxy-4-oxo-], which IC50 is on record?
A: Its IC50 is < 10 nM.

Q: With CO[C@H]1C[C@@H](C(=O)NC23CCC(CC2)Cn2c3nc(C(=O)NCc3ccc(F)c(C)c3)c(O)c2=O)N(C(=O)c2cccn2C)C1 [Example 279, 7,10-Ethanopyrimido[1,2-a]azepine-2-carboxamide, N-[(4-fluoro-3-methylphenyl)methyl]-4,6,7,8,9,10-hexahydro-3-hydroxy-10-[[[(2S,4S)-4-methoxy-1-[(1-methyl-1H-pyrrol-2-yl)carbonyl]-2-pyrrolidinyl]carbonyl]amino]-4-oxo-] as the compound, how does the IC50 read?
A: Its IC50 is < 10 nM.

Q: With O=C(NC12CCC(CC1)Cn1c2nc(C(=O)NCc2ccc(F)cc2)c(O)c1=O)C(=O)N1CCN(C(=O)C2CCCO2)CC1 (centres unmarked) [Example 74, N-(4-Fluorobenzyl)-3-hydroxy-4-oxo-10-((oxo(4-(tetrahydro-2-furanylcarbonyl)-1-piperazinyl)acetyl)amino)-4,6,7,8,9,10-hexahydro-7,10-ethanopyrimido[1,2-a]azepine-2-carboxamide] as the compound, how does the IC50 read?
A: Its IC50 is < 10 nM.

Q: How did the IC50 turn out when O=C(NC12CCC(CC1)Cn1c2nc(C(=O)NCc2ccc(F)cc2)c(O)c1=O)C(=O)N1CCN(c2ccccc2)CC1 [Example 77, N-(4-Fluorobenzyl)-3-hydroxy-4-oxo-10-((oxo(4-phenyl-1-piperazinyl)acetyl)amino)-4,6,7,8,9,10-hexahydro-7,10-ethanopyrimido[1,2-a]azepine-2-carboxamide] was run?
A: Its IC50 is < 10 nM.

Q: For O=C(NC12CCC(CC1)Cn1c2nc(C(=O)NCc2ccc(F)cc2)c(O)c1=O)C(=O)N1CCCCC1 [Example 59, N-(4-Fluorobenzyl)-3-hydroxy-4-oxo-10-((oxo(1-piperidinyl)acetyl)amino)-4,6,7,8,9,10-hexahydro-7,10-ethanopyrimido[1,2-a]azepine-2-carboxamide], which IC50 is on record?
A: The IC50 was < 10 nM.

Q: O=C(NCc1ccc(F)cc1)c1nc2n(c(=O)c1O)CC1CCC2(NC(=O)C2CCOC2)CC1 (centres unmarked) [Example 238, 7,10-Ethanopyrimido[1,2-a]azepine-2-carboxamide, N-[(4-fluorophenyl)methyl]-4,6,7,8,9,10-hexahydro-3-hydroxy-4-oxo-10-[[(tetrahydro-3-furanyl)carbonyl]amino]-] was tested. Which IC50 did it give?
A: Its IC50 is < 10 nM.

Q: For CN/C(=N\C#N)NC12CCC(CC1)Cn1c2nc(C(=O)NCc2ccc(F)c(C)c2)c(O)c1=O [Example 335, 7,10-Ethanopyrimido[1,2-a]azepine-2-carboxamide, 10-[[(1Z)-(cyanoamino)(methylamino)methylene]amino]-N-[(4-fluoro-3-methylphenyl)methyl]-4,6,7,8,9,10-hexahydro-3-hydroxy-4-oxo-], which IC50 is on record?
A: The IC50 was < 10 nM.

Q: Which IC50 does the source give for CN(C)C(=O)C(=O)NC12CCC(CCn3c1nc(C(=O)NCc1ccc(F)c(Cl)c1)c(O)c3=O)C2 (centres unmarked) [Example 213, Ethanediamide, N′-[2-[[[(3-chloro-4-fluorophenyl)methyl]amino]carbonyl]-7,8,9,10-tetrahydro-3-hydroxy-4-oxo-8,11-methano-4H-pyrimido[1,2-a]azocin-11(6H)-yl]-N,N-dimethyl-] here?
A: Its IC50 is < 10 nM.

Q: Which IC50 does the source give for CN(C)C(=O)C(=O)NC12CCC(CC1)Cn1c2nc(C(=O)NCCc2ccc(Cl)cc2)c(O)c1=O [Example 345] here?
A: The IC50 was 10 to 100 nM.

Q: How did the IC50 turn out when CC(=O)N[C@H]1CCN(C(=O)C(=O)NC23CCC(CC2)Cn2c3nc(C(=O)NCc3ccc(F)cc3)c(O)c2=O)C1 [Example 68, 10-((((3S)-3-(Acetylamino)-1-pyrrolidinyl) (oxo)acetyl)amino)-N-(4-fluorobenzyl)-3-hydroxy-4-oxo-4,6,7,8,9,10-hexahydro-7,10-ethanopyrimido[1,2-a]azepine-2-carboxamide] was run?
A: Its IC50 is < 10 nM.

Q: With Cc1ncnn1-c1cc(F)ccc1CNC(=O)c1nc2n(c(=O)c1O)CC1CCC2(NC(=O)C(=O)N(C)C)CC1 [Example 108, N′-(2-((4-Fluoro-2-(5-methyl-1H-1,2,4-triazol-1-yl)benzyl)carbamoyl)-3-hydroxy-4-oxo-6,7,8,9-tetrahydro-7,10-ethanopyrimido[1,2-a]azepin-10(4H)-yl)-N,N-dimethylethanediamide] as the compound, how does the IC50 read?
A: Its IC50 is 10 to 100 nM.

Q: O=C(NC12CCC(CC1)Cn1c2nc(C(=O)NCc2ccc(F)cc2)c(O)c1=O)C(=O)N1CC(F)(F)C1 [Example 98, 10-(((3,3-Difluoro-1-azetidinyl) (oxo)acetyl)amino)-N-(4-fluorobenzyl)-3-hydroxy-4-oxo-4,6,7,8,9,10-hexahydro-7,10-ethanopyrimido[1,2-a]azepine-2-carboxamide] was tested. Which IC50 did it give?
A: The IC50 was < 10 nM.

Q: How did the IC50 turn out when CC(C)N(C)C(=O)C(=O)NC12CCC(CCn3c1nc(C(=O)NCc1ccc(F)cc1)c(O)c3=O)C2 (centres unmarked) [Example 206, Ethanediamide, N′-[2-[[[(4-fluorophenyl)methyl]amino]carbonyl]-7,8,9,10-tetrahydro-3-hydroxy-4-oxo-8,11-methano-4H-pyrimido[1,2-a]azocin-11(6H)-yl]-N-methyl-N-(1-methylethyl)-] was run?
A: Its IC50 is < 10 nM.

Q: How did the IC50 turn out when CC(=O)N[C@@H]1CCN(C(=O)C(=O)NC23CCC(CC2)Cn2c3nc(C(=O)NCc3ccc(F)cc3)c(O)c2=O)C1 [Example 86, 10-((((3R)-3-(Dcetylamino)-1-pyrrolidinyl)(oxo)acetyl)amino)-N-(4-fluorobenzyl)-3-hydroxy-4-oxo-4,6,7,8,9,10-hexahydro-7,10-ethanopyrimido[1,2-a]azepine-2-carboxamide] was run?
A: The IC50 was < 10 nM.

Q: With CN(C)C(=O)C(=O)NC12CCC(CC1)Cn1c2nc(C(=O)NCC(c2ccccc2)c2ccccc2)c(O)c1=O [Example 340] as the compound, how does the IC50 read?
A: The IC50 was > 100 nM.

Q: For Cc1cc(CNC(=O)c2nc3n(c(=O)c2O)CC2CCC3(NC(=O)[C@@H]3CCCN3S(C)(=O)=O)CC2)ccc1F [Example 263, 7,10-Ethanopyrimido[1,2-a]azepine-2-carboxamide, N-[(4-fluoro-3-methylphenyl)methyl]-4,6,7,8,9,10-hexahydro-3-hydroxy-10-[[[(2S)-1-(methylsulfonyl)-2-pyrrolidinyl]carbonyl]amino]-4-oxo-], which IC50 is on record?
A: The IC50 was < 10 nM.

Q: How did the IC50 turn out when NC12CCC(Cn3c1nc(C(=O)NCc1ccc(F)cc1)c(O)c3=O)C2 (centres unmarked) [Example 190, 7,10-Methanopyrimido[1,2-a]azepine-2-carboxamide, 10-amino-N-[(4-fluorophenyl)methyl]-4,6,7,8,9,10-hexahydro-3-hydroxy-4-oxo-] was run?
A: The IC50 was 10 to 100 nM.

Q: COC(=O)c1cn(C(C)(C)C(=O)NC23CCC(CC2)Cn2c3nc(C(=O)NCc3ccc(F)c(C)c3)c(O)c2=O)nn1 [Example 284, 1H-1,2,3-Triazole-4-carboxylic acid, 1-[2-[[2-[[[(4-fluoro-3-methylphenyl)methyl]amino]carbonyl]-6,7,8,9-tetrahydro-3-hydroxy-4-oxo-7,10-ethanopyrimido[1,2-a]azepin-10(4H)-yl]amino]-1,1-dimethyl-2-oxoethyl]-, methyl ester] was tested. Which IC50 did it give?
A: The IC50 was < 10 nM.

Q: Which IC50 does the source give for CN(C)C(=O)C(=O)N(C)C12CCC(CC1)Cn1c2nc(C(=O)NCc2ccc(F)cc2)c(O)c1=O [Example 157, N-(2-((4-Fluorobenzyl)carbamoyl)-3-hydroxy-4-oxo-6,7,8,9-tetrahydro-7,10-ethanopyrimido[1,2-a]azepin-10(4H)-yl)-N,N′,N′-trimethylethanediamide] here?
A: The IC50 was < 10 nM.

Q: Which IC50 does the source give for CN(C)C(=O)C(=O)NC12CCC(CC1)Cn1c2nc(C(=O)NCCc2ccc(O)cc2)c(O)c1=O [Example 347] here?
A: The IC50 was > 100 nM.

Q: Which IC50 does the source give for Cc1cc(CNC(=O)c2nc3n(c(=O)c2O)CC2CCC3(NC(=O)C3=NNC(=O)CC3)CC2)ccc1F [Example 305, 7,10-Ethanopyrimido[1,2-a]azepine-2-carboxamide, N-[(4-fluoro-3-methylphenyl)methyl]-4,6,7,8,9,10-hexahydro-3-hydroxy-4-oxo-10-[[(1,4,5,6-tetrahydro-6-oxo-3-pyridazinyl)carbonyl]amino]-] here?
A: Its IC50 is < 10 nM.

Q: For Cc1cc(CNC(=O)c2nc3n(c(=O)c2O)CCC2CCC3(NC(=O)C(=O)N(C)C)C2)ccc1F (centres unmarked) [Example 212, Ethanediamide, N′-[2-[[[(4-fluoro-3-methylphenyl)methyl]amino]carbonyl]-7,8,9,10-tetrahydro-3-hydroxy-4-oxo-8,11-methano-4H-pyrimido[1,2-a]azocin-11(6H)-yl]-N,N-dimethyl-], which IC50 is on record?
A: Its IC50 is < 10 nM.

Q: CNC(=O)C(=O)NC12CCC(Cn3c1nc(C(=O)NCc1ccc(F)cc1)c(O)c3=O)C2 (centres unmarked) [Example 193, Ethanediamide, N-[2-[[[(4-fluorophenyl)methyl]amino]carbonyl]-6,7,8,9-tetrahydro-3-hydroxy-4-oxo-7,10-methanopyrimido[1,2-a]azepin-10(4H)-yl]-N′-methyl-] was tested. Which IC50 did it give?
A: The IC50 was < 10 nM.

Q: Cc1cc(CNC(=O)c2nc3n(c(=O)c2O)CC2CCC3(NC(=O)C(C)n3cncn3)CC2)ccc1F (centres unmarked) [Example 291, 7,10-Ethanopyrimido[1,2-a]azepine-2-carboxamide, N-[(4-fluoro-3-methylphenyl)methyl]-4,6,7,8,9,10-hexahydro-3-hydroxy-4-oxo-10-[[1-oxo-2-(1H-1,2,4-triazol-1-yl)propyl]amino]-] was tested. Which IC50 did it give?
A: Its IC50 is < 10 nM.

Q: With CN(C)C(=O)C(=O)NC12CCC(CC1)Cn1c2nc(C(=O)NCc2cccs2)c(O)c1=O [Example 361] as the compound, how does the IC50 read?
A: Its IC50 is < 10 nM.
